{"source": "patent US20240285624A1", "about": "“ERK1/2 OR SHP2 INHIBITORS AND FLT3 INHIBITORS COMBINATION THERAPY” (Erasca, Inc., priority 2021, published 2024)", "key": {"[1]": {"tested_on": "ERK1/2 phosphorylation in MOLM-14 cells", "test": "Western blot of phosphorylated ERK1/2", "format": "cell-based", "details": "compound 2 alone, 4 hours, relative to DMSO treated control cells", "procedure": "(§1) Western blotting: Cells were lysed on ice for 10 minutes with Thermo Fisher RIPA lysis buffer with protease and phosphatase inhibitors. The cells were centrifuged at 4° for 10 minutes with a microcentrifuge. The supernatant was transferred to pre-chilled microcentrifuge tube and protein concentration of the lysate was measured using BCA method. Cell lysate supematants of equal-amount of proteins were used for immunoblotting.\n(§2) FIG. 3A is a Western blot showing compound 2 and gilteritinib combination induced downregulation of ERK1/2 phosphorylation in MOLM-14 cells. FIG. 3B is a bar plot quantifying the results of […]. The cell lines, MOLM14 and MV-4-11 were split onto a 6 well plate and treated with compound 2 and gilteritinib alone, and in combination as indicated (FIGS. 3A/B and 4A/B). After 4 hours treatment, cells were lysed and immunoblotted for phosphorylated ERK1/2. […] The phosphorylated ERK1/2 bands were quantified by using Bio-Rad Image Lab software and normalized by total ERK."}, "[2]": {"tested_on": "ERK1/2 phosphorylation in MV-4-11 cells", "test": "Western blot of phosphorylated ERK1/2", "format": "cell-based", "details": "compound 2 alone, 4 hours, relative to DMSO treated control cells", "procedure": "as §1, §2\nFIG. 4A is a Western blot showing compound 2 and gilteritinib combination induced downregulation of ERK1/2 phosphorylation in MV-4-11 cells. FIG. 4B is a bar plot quantifying the results of […]. […] The phosphorylated ERK1/2 bands were quantified by using Bio-Rad Image Lab software and normalized by total ERK."}, "[3]": {"tested_on": "MOLM-13 subcutaneous CDX model", "test": "In vivo tumor growth, FLT3-ITD mutated AML subcutaneous CDX model MOLM-13", "design": "species or system Balb/c nude mice", "details": "compound 2 15 or 30 mg/kg PO QD; groups terminated on treatment day 12", "procedure": "The vehicle/control article, 100 mM acetic acid in deionized water, with pH adjustment to 4.8-5.0, was prepared and stored under ambient conditions throughout the 42-day administration in mice.\nThe test article, compound 2, was freshly prepared in vehicle of 100 mM acetic buffer weekly and stored under ambient conditions. The combination agent gilteritinib was prepared weekly in vehicle of 0.5% Methyl Cellulose & 0.1% Tween 80 Solution weekly and stored under ambient conditions.\nFemale Balb/c nude mice were between 6-8 weeks of age at the time of implantation. Mice were hosted in a special pathogen-free (SPF) environment of the vivarium facility and acclimated to their new environment for at least 3 days prior to initiation of any experiments according to IACUC protocol.\nMOLM-13 was AML cell line that harbored a FLT3-ITD mutation. MOLM-13 cells were cultured in medium containing RPMI1640 plus 10% Fetal Bovine Serum (FBS) and 1% Antibiotic-Antimycotic (AA), at 37° C. in an atmosphere of 5% CO2 in air. The medium was renewed every 2 to 3 days and tumor cells were routinely sub-cultured at a confluence of 80-90% by trypsin-EDTA. Cells growing in an exponential growth phase were harvested and counted for inoculation. […] Animal health and tumor growth were monitored daily. Tumor volume was measured twice a week by caliper when tumors were palpable and measurable. […]"}}, "data": [{"smiles": "COCOC[C@H]1C[C@H]2COc3c(Sc4cnc(N5CCC6(CC5)CO[C@@H](C)[C@H]6N)c(CO)n4)ccnc3N2C1", "note": "[compound 2, (3-((3S,4S)-4-amino-3-methyl-2-oxa-8-azaspiro[4.5]decan-8-yl)-6-(((6aS,8S)-8-((methoxymethoxy)methyl)-6a,7,8,9-tetrahydro-6H-pyrido[3,2-b]pyrrolo[1,2-d][1,4]oxazin-4-yl)thio)pyrazin-2-yl)methanol]", "values": [{"measurement": "inhibition of ERK1/2 phosphorylation (immunoblot)", "setting": "[1]", "result": "about 30%"}, {"measurement": "inhibition of ERK1/2 phosphorylation (immunoblot)", "setting": "[2]", "result": "about 50%"}, {"measurement": "tumor growth under monotherapy (group termination)", "setting": "[3]", "result": "rapid tumor growth"}]}]}
